Source: article PMC5736782, “The Differential Absorption of a Series of P-Glycoprotein Substrates in Isolated Perfused Lungs from Mdr1a/1b Genetic Knockout Mice can be Attributed to Distinct Physico-Chemical Properties: an Insight into Predicting Transporter-Mediated, Pulmonary Specific Disposition” (Pharmaceutical Research, 2017)
Like-named read-outs stand apart in the source and are kept apart here.

What was measured:
[1] = Immobilised artificial membrane (IAM) chromatography; type: physicochemical; conditions: extrapolated to 100% water; mean of four experiments
Method: IAM chromatography provided an experimental measure of substrate membrane affinity and phospholipid interaction. The IAM column (Regis Technologies Inc., Hichrom, Reading, UK; IAM.PC.DD2 10 cm x 4.6 mm ID column) was run under isocratic eluting conditions with the retention of all compounds determined under three mobile phase conditions: 10%, 20% and 30% acetonitrile in water, and from which the theoretical retention time in 100% water was calculated by linear regression. LogK^IAM values were calculated according to Eq. 2:2 LogK^IAM=LogTr−T0/T0
where Tr and T0 are respectively the retention times of the substrate in 100% water and of the unretained compound, i.e. eluting within the solvent front of 75 s in all experiments.

human MDR1 = human MDR1 (Homo sapiens, UniProt P08183); experiment: Gentest ABC transporter membrane ATPase assay; conditions: ATPase, 0–300 μM, 30 min, 37°C
Description: (§1) The Gentest ATPase assay (Corning, Germany) was used to investigate the binding kinetics of the panel of P-gp substrates against membranes constituted to display human MDR1, mouse Mdr1a, mouse Mdr1b and mouse Bcrp. The assays measure the accumulation of inorganic phosphate (absorbance at 800 nm) produced in the breakdown of ATP to ADP. […] The assays were used in accordance with the manufacturer’s protocol to calculate (GraphPad Prism) the Michaelis-Menten parameters Km and VMAX. For the assay test compounds were serially diluted to produce an assay concentration range of 0–300 μM with the kinetics of ATP turnover examined over 30 min at 37°C.

human MDR1 (P-gp) = human MDR1 (P-gp) (Homo sapiens, UniProt P08183); experiment: Gentest ABC transporter membrane ATPase assay; conditions: human
Description: as §1

[2] = test system: P-gp (Mdr1a/1b) in mouse intestinal segments; experiment: Ussing chamber intestinal permeability, ileal segments Mdr1a/1b (+/+) vs (−/−); conditions: for Mdr1a/1b (−/−) Permeability coefficient: P-gp knockout intestinal segments; for Mdr1a/1b (−/−) Permeability coefficient / Mdr1a/1b (+/+) Permeability coefficient: mucosal to serosal, 50 μM, 180 min; for Ratio Permeability (−/−): (+/+): intestinal Papp KO:WT; for Mdr1a/1b (+/+) Permeability coefficient: wild-type intestinal segments
Method: (§2) The bathing fluid for both mucosal and serosal surfaces (3 mL volume in each chamber) comprised oxygenated Krebs-Henseleit buffer maintained at 37°C (heating block) under stirred conditions (gas flow manifold). […] Any intestinal segments presenting an initial TEER of lower than 80 Ω.cm^2 were discarded prior to the experiment, likewise any segments whose TEER decreased by more than 10% over the course of the experiment were excluded.
(§3) Thereafter permeability coefficients were determined according to Eq. 4:4 ρ=dM/dt/A^∗C0

mouse Mdr1a = mouse Mdr1a (Mus musculus, UniProt P21447); experiment: Gentest ABC transporter membrane ATPase assay; conditions: 0–300 μM, 30 min, 37°C
Description: as §1

[3] = Multi-lamellar liposome vesicle (MLV) partitioning; type: physicochemical; conditions: (C0−CS)/C0, 1 μg/mL, 4 h, 37°C, PBS pH 7.4
Method: MLVs were formed as previously described ([20]). Briefly, solutions of 8 mg phosphatidylcholine and 2 mg phosphatidylglycerol in 10 mL chloroform were completely dried to a lipid film (rotation under vacuum).
These preparations were then incubated at 37°C for 4 h under shaking conditions to allow equilibration of compound between the lipid and aqueous fractions. The MLVs were then pelleted and 100 μL of supernatant removed for analysis by radiometric or LC-MS/MS methods as described above. Partitioning into the MLVs was determined according to Eq. 3:3 MLVpartitioning=C0−CS/C0
where C0 is the initial compound concentration (1 μg/mL) and CS is the compound concentration present in the aqueous supernatant at the end of 4 h incubation.

mouse Bcrp = molecular target: T1, mouse Bcrp (Mus musculus, UniProt Q7TMS5); experiment: Gentest ABC transporter membrane ATPase assay; type: biochemical
T1 construct: purchased Corning (Gentest), Germany
T1 sequence (Q7TMS5 1-657): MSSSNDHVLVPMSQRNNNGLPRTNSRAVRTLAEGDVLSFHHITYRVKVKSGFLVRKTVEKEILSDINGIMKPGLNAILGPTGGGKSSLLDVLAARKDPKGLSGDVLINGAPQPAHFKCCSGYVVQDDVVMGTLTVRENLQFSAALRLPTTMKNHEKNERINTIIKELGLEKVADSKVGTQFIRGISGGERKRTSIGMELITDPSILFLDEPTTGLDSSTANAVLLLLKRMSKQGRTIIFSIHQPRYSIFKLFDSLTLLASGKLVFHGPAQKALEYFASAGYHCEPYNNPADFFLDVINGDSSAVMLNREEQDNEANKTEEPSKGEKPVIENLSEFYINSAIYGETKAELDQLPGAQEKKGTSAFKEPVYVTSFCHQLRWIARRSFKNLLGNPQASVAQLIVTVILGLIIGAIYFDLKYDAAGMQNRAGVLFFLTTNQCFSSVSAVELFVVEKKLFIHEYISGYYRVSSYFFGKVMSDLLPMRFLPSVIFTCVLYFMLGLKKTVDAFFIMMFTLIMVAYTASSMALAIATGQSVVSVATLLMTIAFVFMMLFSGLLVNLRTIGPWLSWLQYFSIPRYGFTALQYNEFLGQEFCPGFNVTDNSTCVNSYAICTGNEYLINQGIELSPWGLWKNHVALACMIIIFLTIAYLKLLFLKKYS
Description: as §1

mouse Mdr1b = mouse Mdr1b (Mus musculus, UniProt P06795); experiment: Gentest ABC transporter membrane ATPase assay; conditions: 0–300 μM, 30 min, 37°C
Description: as §1

[4] = test system: P-glycoprotein (Mdr1a/Mdr1b) in isolated perfused mouse lung; experiment: Isolated perfused mouse lung (IPML) airway-to-perfusate absorption, Mdr1a/1b (+/+) vs (−/−)
Method: The atria and the lower half of the heart were cut to allow the free flow of perfusate. The lungs were removed and suspended vertically in a custom water-jacketed glass thorax (Radleys, Essex, UK) maintained at 37°C.
Following dosing of compound into the IPML airways serial samples (250 μL) were collected for bioanalysis from the 10 mL recirculating perfusate reservoir. Each sample collected from the reservoir was replaced with an equal volume of fresh warmed, oxygenated perfusate. Upon termination of the experiment the dose solutions, apparatus washings and perfusate samples were collected for mass balance calculations enabling determination of the actual total dose delivered to the lungs.
Radioactive compounds were directly analysed by liquid scintillation counting. Volumes of 50 μL perfusate samples were mixed with 3 mL of Scintisafe 3 Liquid Scintillation Fluid (Fisher, UK) and transferred to vials for scintillation counting using a TriCarb 2900TR (Packard Bioscience, USA).
After accounting for the mass of compound removed at each sample point, plots of the cumulative ‘%deposited dose absorbed’ versus ‘time’ were generated and subject to nonlinear regression analysis according to a first-order absorption one-compartment accumulating model (Eq. 1) to generate estimates for the extent (F) and rate (Ka) of absorption from the IPML airways to the recirculating perfusate.
The data was also subject to standard non-compartmental analysis, specifically Area Under Curve (AUC0–30 min) of ‘%deposited dose absorbed’ versus ‘time’ (units: %Dose.min) and reflecting for the exclusively accumulating perfusate ‘compartment’ the exposure arising from the IPML absorption process alone.

P-gp [5] = test system: P-gp; design: method as in PMID 23670704; conditions: IPRL and IPML models; cited from earlier work
P-gp (Mdr1a/1b) = experiment: Pilot in-vivo intra-nasal instillation, lung clearance
Method: Separate mice were sacrificed (n=3) at each time-point post-instillation (5 min, 1 hr, 3 hr, 5 hr, 7 hr and 12 hr). Lung tissue was homogenised and subjected to solute extraction approaches priod to LC-MS/MS quantitation.

P-gp [6] = conditions: IPRL; cited from earlier work
[7] = test system: P-gp (Mdr1a/1b) in mouse intestinal segments
Method: as §2, §3

Caco-2 cell model = test system: Caco-2 cell model; design: method as in PMID 12761811; conditions: cited from earlier work
[8] = design: method as in PMID 12761811; conditions: cited from earlier work
[9] = ATPase, 0 indicates no enzyme turnover
[10] = categorisation from IPML outcomes
[11] = knockout IPML, % deposited dose absorbed vs time in perfusate
[12] = knockout IPML, within 30 minutes
[13] = wild-type IPML, within 30 minutes

mouse Mdr1a, sequence (P21447 whole entry): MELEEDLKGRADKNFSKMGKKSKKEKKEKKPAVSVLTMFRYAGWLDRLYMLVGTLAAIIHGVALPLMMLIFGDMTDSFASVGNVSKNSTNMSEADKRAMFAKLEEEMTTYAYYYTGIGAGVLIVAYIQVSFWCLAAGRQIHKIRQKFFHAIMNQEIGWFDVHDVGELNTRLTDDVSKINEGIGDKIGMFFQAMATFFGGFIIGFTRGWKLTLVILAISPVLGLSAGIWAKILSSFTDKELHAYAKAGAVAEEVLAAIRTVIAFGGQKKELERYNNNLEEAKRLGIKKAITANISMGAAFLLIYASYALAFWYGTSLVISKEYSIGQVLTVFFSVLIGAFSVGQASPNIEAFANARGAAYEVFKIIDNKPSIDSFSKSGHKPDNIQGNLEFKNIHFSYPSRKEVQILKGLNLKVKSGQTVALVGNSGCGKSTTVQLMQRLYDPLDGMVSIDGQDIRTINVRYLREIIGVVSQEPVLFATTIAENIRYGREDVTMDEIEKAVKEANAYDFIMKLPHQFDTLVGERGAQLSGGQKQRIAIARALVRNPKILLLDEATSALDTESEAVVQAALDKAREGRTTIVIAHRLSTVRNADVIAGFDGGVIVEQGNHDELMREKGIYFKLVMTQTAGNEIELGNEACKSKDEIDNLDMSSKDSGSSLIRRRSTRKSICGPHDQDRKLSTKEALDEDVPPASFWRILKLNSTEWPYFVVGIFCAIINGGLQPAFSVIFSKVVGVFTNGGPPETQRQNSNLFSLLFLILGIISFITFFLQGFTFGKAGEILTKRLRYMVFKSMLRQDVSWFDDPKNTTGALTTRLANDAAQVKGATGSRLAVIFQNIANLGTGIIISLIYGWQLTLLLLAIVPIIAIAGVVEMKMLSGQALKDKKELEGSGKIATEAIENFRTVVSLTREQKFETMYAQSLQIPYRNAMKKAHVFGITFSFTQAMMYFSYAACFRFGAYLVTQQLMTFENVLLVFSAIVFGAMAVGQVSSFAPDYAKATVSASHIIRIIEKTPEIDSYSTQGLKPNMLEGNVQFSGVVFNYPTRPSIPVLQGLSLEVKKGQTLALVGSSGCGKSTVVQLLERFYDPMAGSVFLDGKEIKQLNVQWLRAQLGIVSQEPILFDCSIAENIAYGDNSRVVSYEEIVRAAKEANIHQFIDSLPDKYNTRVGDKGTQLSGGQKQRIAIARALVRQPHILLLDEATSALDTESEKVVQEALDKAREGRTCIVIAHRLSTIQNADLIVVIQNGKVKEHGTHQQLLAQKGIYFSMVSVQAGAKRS
mouse Mdr1b, sequence (P06795 whole entry, the tested form may be a part): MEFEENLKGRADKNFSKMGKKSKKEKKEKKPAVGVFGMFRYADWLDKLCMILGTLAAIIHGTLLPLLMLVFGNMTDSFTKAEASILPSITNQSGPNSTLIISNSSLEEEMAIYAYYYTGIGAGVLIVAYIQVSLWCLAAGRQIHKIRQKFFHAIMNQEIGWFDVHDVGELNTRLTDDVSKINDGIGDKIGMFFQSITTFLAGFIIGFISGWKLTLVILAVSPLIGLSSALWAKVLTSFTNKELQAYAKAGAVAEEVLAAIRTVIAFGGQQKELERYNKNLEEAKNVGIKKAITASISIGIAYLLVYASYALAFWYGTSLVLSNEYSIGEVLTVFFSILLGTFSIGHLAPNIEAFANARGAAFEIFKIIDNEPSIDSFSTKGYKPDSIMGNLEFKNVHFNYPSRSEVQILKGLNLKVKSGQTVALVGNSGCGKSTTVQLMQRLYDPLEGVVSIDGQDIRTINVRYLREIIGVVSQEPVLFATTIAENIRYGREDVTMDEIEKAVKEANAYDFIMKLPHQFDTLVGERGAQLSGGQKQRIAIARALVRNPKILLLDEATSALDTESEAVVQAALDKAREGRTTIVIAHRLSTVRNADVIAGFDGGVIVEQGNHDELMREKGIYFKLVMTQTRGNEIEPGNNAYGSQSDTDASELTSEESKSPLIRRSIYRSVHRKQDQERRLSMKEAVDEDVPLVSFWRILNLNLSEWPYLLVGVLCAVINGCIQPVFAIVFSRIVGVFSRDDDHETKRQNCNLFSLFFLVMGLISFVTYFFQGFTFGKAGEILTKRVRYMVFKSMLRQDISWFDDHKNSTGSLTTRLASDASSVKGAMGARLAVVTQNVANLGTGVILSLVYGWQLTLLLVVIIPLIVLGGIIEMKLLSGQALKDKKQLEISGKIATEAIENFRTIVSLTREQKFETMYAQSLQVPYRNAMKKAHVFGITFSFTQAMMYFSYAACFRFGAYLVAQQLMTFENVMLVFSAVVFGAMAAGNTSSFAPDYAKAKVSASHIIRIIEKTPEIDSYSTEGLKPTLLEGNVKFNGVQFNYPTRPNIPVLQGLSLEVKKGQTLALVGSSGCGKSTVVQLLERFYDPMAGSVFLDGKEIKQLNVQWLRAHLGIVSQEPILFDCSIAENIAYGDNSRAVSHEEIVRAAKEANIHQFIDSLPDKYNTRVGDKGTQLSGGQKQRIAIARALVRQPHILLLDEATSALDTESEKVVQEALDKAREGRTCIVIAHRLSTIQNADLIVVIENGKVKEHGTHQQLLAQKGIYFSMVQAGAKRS
human MDR1, sequence (P08183 whole entry): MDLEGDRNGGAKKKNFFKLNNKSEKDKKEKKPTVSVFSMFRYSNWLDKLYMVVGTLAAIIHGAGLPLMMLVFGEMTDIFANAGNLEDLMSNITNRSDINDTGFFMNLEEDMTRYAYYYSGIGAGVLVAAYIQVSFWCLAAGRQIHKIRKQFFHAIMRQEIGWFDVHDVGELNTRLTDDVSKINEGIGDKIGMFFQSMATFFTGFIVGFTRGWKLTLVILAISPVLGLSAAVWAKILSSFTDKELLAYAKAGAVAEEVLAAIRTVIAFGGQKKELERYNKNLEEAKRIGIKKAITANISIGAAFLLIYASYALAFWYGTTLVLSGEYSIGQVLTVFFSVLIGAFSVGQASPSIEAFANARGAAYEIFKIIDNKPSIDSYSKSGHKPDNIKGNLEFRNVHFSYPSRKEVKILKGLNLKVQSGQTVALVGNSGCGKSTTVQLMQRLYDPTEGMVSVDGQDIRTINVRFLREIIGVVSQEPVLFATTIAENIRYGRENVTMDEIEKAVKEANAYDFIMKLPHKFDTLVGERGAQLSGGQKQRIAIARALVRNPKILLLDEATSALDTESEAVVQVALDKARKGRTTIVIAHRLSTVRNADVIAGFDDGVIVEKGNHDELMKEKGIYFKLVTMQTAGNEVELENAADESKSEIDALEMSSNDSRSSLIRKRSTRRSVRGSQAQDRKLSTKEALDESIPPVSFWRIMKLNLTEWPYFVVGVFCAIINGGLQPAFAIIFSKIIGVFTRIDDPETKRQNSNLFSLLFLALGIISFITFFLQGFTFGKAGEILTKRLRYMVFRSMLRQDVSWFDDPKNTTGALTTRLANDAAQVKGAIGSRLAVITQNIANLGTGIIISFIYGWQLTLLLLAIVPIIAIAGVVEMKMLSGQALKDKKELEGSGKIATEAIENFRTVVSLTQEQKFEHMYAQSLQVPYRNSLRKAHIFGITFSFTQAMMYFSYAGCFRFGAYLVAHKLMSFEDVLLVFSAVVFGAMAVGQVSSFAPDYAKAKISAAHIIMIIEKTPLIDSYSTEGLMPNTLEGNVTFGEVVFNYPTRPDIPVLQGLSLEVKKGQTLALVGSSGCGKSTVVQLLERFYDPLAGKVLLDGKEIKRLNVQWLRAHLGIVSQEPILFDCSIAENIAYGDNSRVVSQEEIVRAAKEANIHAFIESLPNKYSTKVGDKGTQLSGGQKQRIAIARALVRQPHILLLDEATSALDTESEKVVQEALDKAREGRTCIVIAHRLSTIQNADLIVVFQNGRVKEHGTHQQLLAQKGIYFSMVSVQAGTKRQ
human MDR1 (P-gp), sequence (P08183 whole entry): as above

Compound | LogK^IAM [1] | Vmax (human MDR1) [µM/min] | Mdr1a/1b (−/−) Permeability coefficient [2] | Ratio Permeability (−/−): (+/+) [2] | Mdr1a/1b (+/+) Permeability coefficient [2] | Km (mouse Mdr1a) [µM] | Vmax (mouse Mdr1a) [µM/min] | MLV Partitioning [3] | Vmax (mouse Bcrp; [9]) [µM/min] | Km (mouse Mdr1b) [µM] | Vmax (mouse Mdr1b) [µM/min] | Group (impact of Mdr1a/1b knockout on IPML absorption) [4, 10] | Mdr1a/1b (-/-) AUC(0-30) [4, 11] [%.min] | Mdr1a/1b (-/-) % Deposited Dose absorbed [4, 12] [%] | Mdr1a/1b (+/+) ‘F’ estimate by model fit [95% CI) ([4]; male, mouse) | Mdr1a/1b (-/-) ‘F’ estimate by model fit [95% CI) ([4]; male, mouse) | Mdr1a/1b (+/+) % Deposited Dose absorbed [4, 13] [%] | effect of P-gp inhibition (GF120918) upon pulmonary absorption (P-gp [5]) | effect of co-administered GF120918 upon pulmonary absorption (P-gp [6]) | Mdr1a/1b (+/+) ‘F’ estimate by model fit [95% CI) ([4]; male, mouse, 50 μM) | further results
COc1cc2c(c(OC)c1OC)-c1ccc(OC)c(=O)cc1[C@@H](NC(C)=O)CC2 [Colchicine, colchicine] | 1.30 | 16.6 | 14.95 ± 3.18 cm/s (x10^−6) | 2.16 | 6.93 ± 3.15 cm/s (x10^−6) | 9.1 | 22.7 | 0.86 | 0 | 7.7 | 28.4 | GROUP B | 571 | 25.4 | 16.6 [14.7 to 18.4] | 23.3 [20.9 to 25.7] | 17.7 |  |  |  | Km at 30 min (human MDR1 (P-gp)): 15.4 µM; Ratio AUCs (-/-) : (+/+) ([4]; IPML KO:WT): 1.43; Mdr1a/1b (+/+) AUC(0-30) ([4]; wild-type IPML, % deposited dose absorbed vs time in perfusate): 398 %.min
C[C@H]1O[C@@H](O[C@H]2[C@@H](O)C[C@H](O[C@H]3[C@@H](O)C[C@H](O[C@H]4CC[C@@]5(C)[C@H](CC[C@@H]6[C@@H]5C[C@@H](O)[C@]5(C)[C@@H](C7=CC(=O)OC7)CC[C@]65O)C4)O[C@@H]3C)O[C@@H]2C)C[C@H](O)[C@@H]1O [Digoxin, digoxin] | 0.92 | 19.7 | 20.94 ± 2.94 cm/s (x10^−6) |  | 6.04 ± 1.46 cm/s (x10^−6) |  | 26.7 | 0.30 | 0 |  | 44.1 |  |  |  |  |  |  | remained unaffected | no effect | 44.0 [37.2 to 50.8] | lung levels 1 hr post-instillation, wild-type mice (P-gp (Mdr1a/1b); intra-nasal 976 ng, Mdr1a/1b +/+): 1.57 % of the nominal instilled dos; lung levels 1 hr post-instillation, knockout mice (P-gp (Mdr1a/1b); intra-nasal 976 ng, Mdr1a/1b -/-): 0.94 % of the nominal instilled dos; lung levels after 1 h post-instillation (P-gp (Mdr1a/1b); intra-nasal, WT and KO mice): undetectable; Mdr1a/1b (-/-) ‘F’ estimate by model fit [95% CI) ([4]; male, mouse, 50 μM): 49.8 [38.4 to 61.3]; Mdr1a/1b (+/+) % Deposited Dose absorbed ([4]; male, mouse, 30 min, 50 μM): 40.1%; Mdr1a/1b (-/-) % Deposited Dose absorbed ([4]; male, mouse, 30 min, 50 μM): 41.8%
CC[C@@]1([C@@H]2O[C@@H]([C@H]3O[C@@](O)(CO)[C@H](C)C[C@@H]3C)C[C@@H]2C)CC[C@H]([C@]2(C)CC[C@]3(C[C@H](O)[C@@H](C)[C@@H]([C@@H](C)[C@@H](OC)[C@H](C)C(=O)O)O3)O2)O1 [Monensin, monensin] | 1.32 |  |  |  |  |  | 27.6 | 0.68 | 0 |  | 42.3 |  | 722 | 38.9 | 35.8 [28.0 to 43.6] | 33.7 [27.7 to 39.6] | 36.5 |  |  |  | Mdr1a/1b (−/−) Permeability coefficient [7]: 19.06 ± 2.41 cm/s (x10^−6); Group (impact of Mdr1a/1b knockout on IPML absorption) [4]: GROUP A
COC(=O)c1ccccc1-c1c2ccc(=N)cc-2oc2cc(N)ccc12.Cl [Rh-123, rhodamine-123] | 1.30 | 36.3 | 22.55 ± 2.24 cm/s (x10^−6) | 2.49 | 9.06 ± 1.81 cm/s (x10^−6) | 6 | 35.2 | 0.82 | 18.5 | 2.2 | 29.7 | GROUP B |  | 33.2 |  |  | 20.7 | increased | significantly increased |  | Km (human MDR1): 2.2 µM; t^1/2 for the initial decline of lung clearance, KO (P-gp (Mdr1a/1b); mouse, in vivo): 107 min; t^1/2 for the initial decline of lung clearance, WT (P-gp (Mdr1a/1b); mouse, in vivo): 136 min; t^1/2 terminal decline phase of lung clearance (P-gp (Mdr1a/1b); mouse, in vivo): 500 min; Km (mouse Bcrp; [9]): 110 µM; interaction with Bcrp (ATP turnover) (mouse Bcrp; mouse Bcrp membrane model): showed evidence of interactions with Bcrp; Mdr1a/1b (+/+) AUC(0-30) [4]: 376 %.min; Mdr1a/1b (+/+) ‘F’ estimate by model fit [95% CI) [4]: 23.5 [19.9 to 27.1]; Mdr1a/1b (-/-) AUC(0-30) [4]: 712 %.min; Mdr1a/1b (-/-) ‘F’ estimate by model fit [95% CI) [4]: 30.6 [27.6 to 33.5]; Ratio AUCs (-/-) : (+/+) ([4]; mouse): 1.89
CC(C)(C)NCC(O)c1ccc(O)c(CO)c1 (centres unmarked) [Salbutamol, salbutamol] | 1.47 | 45.6 |  |  | 10.6 ± 2.30 cm/s (x10^−6) |  | 52.3 | 0.88 | 0 |  | 49.1 |  |  |  |  |  |  |  |  | 24.9 [21.8 to 28.1] | Mdr1a/1b (−/−) Permeability coefficient [7]: 14.90 ± 2.16 cm/s (x10^−6); Group (impact of Mdr1a/1b knockout on IPML absorption) [4]: GROUP B; Mdr1a/1b (-/-) ‘F’ estimate by model fit [95% CI) ([4]; male, mouse, 50 μM): 30.2 [28.2 to 32.2]
cyanocobalamin |  |  |  |  |  |  |  |  |  |  |  |  |  |  |  |  |  |  |  |  | Papp (Caco-2 cell model): < 10 nm/s; permeability across the lung [8]: high permeability
